# Source: patent publication US11440886B2, “Anti-inflammatory compound, and preparation and use thereof” (E-Nitiate Biopharmaceuticals (Hangzhou) Co., Ltd., priority 2018, dated 2022)
# Key:
# [1] = target: human recombinant PDE4B1 enzyme (Homo sapiens (Human), UniProt Q07343); experiment: Inhibition of PDE4B1 activity by cAMP HTRF assay; assay type: biochemical; settings: human recombinant PDE4B1, cAMP 40 nM, pH 7.4
# Summary of the method: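 Recombinant human PDE4B1 (4.8 U) was preincubated 10 min with compound in HBSS/HEPES/MgCl2/BSA, pH 7.4, then 40 nM cAMP was added for 60 min at RT. Remaining cAMP was read by HTRF after IBMX stop; IC50 from eight concentrations in duplicate, repeated twice.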
# [2] = test system: human peripheral blood mononuclear cells (PBMCs); experiment: Inhibition of LPS-induced TNFα release by peripheral blood mononuclear cells (PBMCs); assay type: cell-based; settings: PBMC, TNFα level in supernatant, LPS 1 ug/mL, 24 hours, Luminex
# Experimental: Inhibition of the compounds on proinflammatory cytokine release by peripheral blood mononuclear cells (PBMCs)
# The effect of the compounds on the release characteristics of TNFa cytokines in frozen human peripheral blood mononuclear cells (PBMCs) was determined.
# Fresh human PBMCs were isolated, and suspended in a fresh medium. The PBMC medium (CM) is RPMI1640 containing 10% FBS, 1% PBS, and 2 mM L-glutamine. The cells were plated at a density of 2*10^5 cells/well (100 ul). The test compound was dissolved in DMSO to form a 10 mM sample (DMSO, 100%). The compound was diluted with PBMC medium to the required concentrations. The sample (50 uL) was incubated for 1 hr with cells at 37° C., 5% CO2, after which the inducer (LPS, 1 ug/mL) was added. The inducer+vehicle (LPS+0.05% DMSO) was used as a control in this experiment. The vehicle without inducer was used as a negative control. Crisaborole was used as a positive control. After 24 hours of incubation, the supernatant was extracted and stored at −80° C. The supernatant was thawed and the TNFα level in the supernatant was measured by Luminex4-plex assay.
# PDE4 = settings: background statement; cited from earlier work
# cytokine release = settings: background statement; cited from earlier work
# eczema = settings: patients with eczema; cited from earlier work
# human recombinant PDE4B1 enzyme, sequence (Q07343 whole entry): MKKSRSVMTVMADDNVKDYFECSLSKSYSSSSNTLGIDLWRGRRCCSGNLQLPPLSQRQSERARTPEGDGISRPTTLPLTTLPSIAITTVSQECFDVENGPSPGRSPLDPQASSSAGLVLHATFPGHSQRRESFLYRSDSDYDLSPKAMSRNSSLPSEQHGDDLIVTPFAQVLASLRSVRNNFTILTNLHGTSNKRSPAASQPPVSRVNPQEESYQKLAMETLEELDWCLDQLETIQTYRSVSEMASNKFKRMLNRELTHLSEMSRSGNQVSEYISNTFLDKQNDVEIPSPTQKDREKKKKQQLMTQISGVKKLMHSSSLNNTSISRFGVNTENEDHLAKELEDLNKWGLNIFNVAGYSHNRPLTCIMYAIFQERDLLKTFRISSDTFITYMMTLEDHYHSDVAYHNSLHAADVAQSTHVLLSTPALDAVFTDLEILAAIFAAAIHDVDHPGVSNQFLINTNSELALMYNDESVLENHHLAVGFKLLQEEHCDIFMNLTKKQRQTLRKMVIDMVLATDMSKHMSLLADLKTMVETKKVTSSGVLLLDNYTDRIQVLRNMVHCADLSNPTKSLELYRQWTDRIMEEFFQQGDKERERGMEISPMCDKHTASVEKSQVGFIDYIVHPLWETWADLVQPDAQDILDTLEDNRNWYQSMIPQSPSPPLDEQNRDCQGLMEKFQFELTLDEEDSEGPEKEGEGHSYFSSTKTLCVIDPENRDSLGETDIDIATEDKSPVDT
IC50 [1] [nM],SMILES,EC50 [2] [nM],enzyme inhibition activity (PDE4),cell activity inhibiting cytokine release (cytokine release),clinical effect on eczema higher than that of the blank control (eczema),proportion of patients who cannot benefit (eczema)
7,"COc1ccc(/C=C/n2c(C)cc(=O)cc2C)cc1OC1CCSC1 (stereo not shown) [Example 80, (E)-1-((3-(tetrahydrothiophen-3-yl)oxy-4-methoxy)-styryl)-2,6-dimethylpyridin-4(1H)-one]",< 5,–,–,–,–
2.8,"Cc1cc(=O)cc(C)n1/C=C/c1ccc(OC(F)F)c(OCC2CC2)c1 [Example 88, (E)-1-(3-(cyclopropylmethoxy)-4-(difluoromethoxy)styryl)-2,6-dimethylpyridin-4(1H)-one]",< 5,–,–,–,–
26.4,"COc1ccc(/C=C/n2c(C)cc(=O)cc2C)cc1OCCSC [Example 77, (E)-1-(3-methylthioethoxy-4-methoxystyryl)-2,6-dimethylpyridin-4(1H)-one]",11,–,–,–,–
–,N#Cc1ccc(Oc2ccc3c(c2)COB3O)cc1 [Crisaborole],–,about 100 nM,about 500 nM,about 10%,about 50%
